# Source: EP0076713B1, “Aminomethyl-1H-indole-4-methanol derivatives and their salts, process and intermediates for their preparation, their use as medicines and compositions containing them” (ROUSSEL-UCLAF, priority 1981, dated 1983)
# Counter-ions that a name gives are not always drawn.
# Key:
# Assay type in all cases: in vivo
# [1] = tested on: rats mâles de souche WISTAR; assay: Hypotensive activity in anaesthetised rats (carotid arterial pressure, intravenous administration); details: relative to initial control pressure
# Procedure: A) Détermination de l'activité hypotensive L'activité hypotensive a été étudiée sur des rats mâles de souche WISTAR pensant 300 g environ et anesthésiés au nembutal (50 mg/kg par voie intraveineuse).
# Le produit testé a été administré par voie intraveineuse dans la veine jugulaire.
# La pression artérielle carotidienne a été mesurée avant et après administration du produit testé.
# Le tableau ci-après indique les variations exprimées en pourcentage de la pression artérielle après administration du produit testé par rapport à la pression artérielle témoin initiale: […]
# [2] = tested on: souris; assay: Acute toxicity, oral administration in mice
# Excerpt: On a évalué les doses létales DLo des différents composés testés après administration par voie orale chez la souris.
# On apelle DLo la dose maximale ne provoquant aucune mortalité en 8 jours.
# [3] = tested on: rats mâles spontanément hypertendus (souche Okamoto); assay: Antihypertensive activity in spontaneously hypertensive rats (tail arterial pressure, oral administration); details: 1 mg/kg oral, relative to initial control pressure; for Variation % de la pression arterielle 1 heure après l'administration: 1 hour; for Variation % de la pression arterielle 4 heures après l'administration: 4 hours
# Excerpt: L'action antihypertensive a été étudiée sur des rats mâles spontanément hypertendus (souche Okamoto) âgés de 20 semaines pesant 300 à 320g.
# Le produit a été administré par voie orale 48 heures après la pose d'un cathéter intracarotidien.
# La pression artérielle a été mesurée à la queue du rat au moyen d'un manchon pneumatique et à l'aide d'un transducteur piezo-électrique de pression. La pression a été mesurée avant et une heure, quatre heures et vingt-quatre heures après l'administration du produit.
# Le tableau ci-après indique les variations exprimées en pourcentages de la pression artérielle, après administration du produit, par rapport à la pression témoin initiale.
# [4] = tested on: ulcéres au niveau de l'estomac, par ligature du pylore; assay: Antiulcer activity, Shay technique (gastric ulcers induced by pylorus ligation); details: pylorus-ligated rats, about 16 hours after treatment
# Excerpt: La technique utilisée est décrite par SHAY et al dans Gastroenterology, 5, 43 (1945).
# La technique de SHAY consiste à induire chez ez des rats des ulcéres au niveau de l'estomac, par ligature du pylore.
# Les animaux sont anesthésiés à l'éther. Une incision longitudinale est faite 1 cm environ au-dessous du sternum, la partie glandulaire de l'estomac et le duodénum sont mis à jour et une ligature est posée quelques mm au-dessous du pylore. Le plan musculaire est laissé tel quel et la peau est suturée par deux agrafes.
# Les animaux reçoivent aussitôt après le dispersif ou la substance à étudier, par voie buccale, sous un volume de 0,5 ml/100 g, et sont maintenus sans nourriture ni boisson, jusqu'au sacrifice par saignée carotidienne qui a lieu environ 16 heures après le traitement.
# Avant de prélèver l'estomac, une ligature est possé au-dessus du cardia.
# Le liquide gastrique est recueilli afin d'en mesure le pH.
# L'estomac est ensuite ouvert selon la grande courbure, rincé dans le sérum physiologique et étalé sur du papier millimétrique pour être examiné sous la loupe binoculaire.
# On évalue macroscopiquement la gravité des lésions qui est côtée de 0 à 4 pour chaque estomac.
# On détermine pour chaque lot de rat, l'intensité moyenne des ulcérations et on calcule la protection en rapportant l'index moyen du groupe à l'index moyen du groupe témoin.
# On détermine également les valeurs de pH du liquide gastrique pour les animaux traités et les animaux témoins.
# [5] = oral, mice, maximal dose causing no mortality in 8 days
# [6] = dose −0,1 mg/kg [sic], intravenous
Compound,Variation % de la pression arterielle 1 minute après l'administration ([1]; 10 mg/kg intravenous),Variation % de la pression arterielle 5 minutes après l'administration ([1]; 10 mg/kg intravenous),Variation % de la pression arterielle 10 minutes après l'administration ([1]; 10 mg/kg intravenous),Variation % de la pression arterielle 30 minutes après l'administration ([1]; 10 mg/kg intravenous),"DLo ([2]; mouse, in vivo, po, 11520 min)","Variation % de la pression arterielle 1 minute après l'administration ([1]; 0,1 mg/kg intravenous)","Variation % de la pression arterielle 5 minutes après l'administration ([1]; 0,1 mg/kg intravenous)","Variation % de la pression arterielle 10 minutes après l'administration ([1]; 0,1 mg/kg intravenous)","Variation % de la pression arterielle 30 minutes après l'administration ([1]; 0,1 mg/kg intravenous)",Variation % de la pression arterielle 1 minute après l'administration ([1]; 1 mg/kg intravenous),Variation % de la pression arterielle 5 minutes après l'administration ([1]; 1 mg/kg intravenous),Variation % de la pression arterielle 10 minutes après l'administration ([1]; 1 mg/kg intravenous),Variation % de la pression arterielle 30 minutes après l'administration ([1]; 1 mg/kg intravenous),"DLo [2, 5]",further results
oxalate neutre de 1'a-[[(1-éthylpropyl)amino]méthyl]-1 H-indole-4-méthanol [Exemple 7],−59%,−56%,−50%,−35%,80 mg/kg,–,–,–,–,–,–,–,–,–,–
"CC(C)NCC(O)c1cccc2c1CCN2 (stereo not drawn) [Exemple 5, α-[[(1-méthyléthyl)amino]méthyl]2,3-dihydro-1H-indole-4-méthanol]",–,–,–,–,–,−24%,−28%,−26%,−22%,−20%,−19%,−17%,−14%,200 mg/kg,"Variation % de la pression arterielle 1 heure après l'administration [3]: −27%; Variation % de la pression arterielle 4 heures après l'administration [3]: −24%; Variation % de la pression arterielle 24 heures après l'administration ([3]; 24 hours): −17%; Ulcération % de protection par rapport aux témoins ([4]; 0,4 mg/kg oral): 60%; pH du liquide gastrique animaux traités ([4]; 0,4 mg/kg oral, controls pH 2,2): 2,5; Ulcération % de protection par rapport aux témoins ([4]; 0,08 mg/kg oral): 66%; pH du liquide gastrique animaux traités ([4]; 0,08 mg/kg oral, controls pH 2,2): 2,6; Ulcération % de protection par rapport aux témoins ([4]; 2 mg/kg oral): 90%; pH du liquide gastrique animaux traités ([4]; 2 mg/kg oral, controls pH 2): 2,6"
"CCCNCC(O)c1cccc2[nH]ccc12 (centres unmarked) [Exemple 11, Oxalatede 1'a[[(1-propyl)amino]méthyl]-1H-indole-4-méthanol]",–,–,–,–,–,−11%,−12%,−12%,−13%,−22%,−33%,−33%,−30%,100 mg/kg,"Ulcération % de protection par rapport aux témoins ([4]; 1 mg/kg oral): 48%; pH du liquide gastrique animaux traités ([4]; 1 mg/kg oral, controls pH 3,3): 3,2; Ulcération % de protection par rapport aux témoins ([4]; 5 mg/kg oral): 63%; pH du liquide gastrique animaux traités ([4]; 5 mg/kg oral, controls pH 3,0): 2,9"
"OC(CNCC(O)c1cccc2[nH]ccc12)COc1ccccc1 (centres unmarked) [Exemple 10, a-[[(2-hydroxy-3-phénoxy-propyl)amino]méthyl]-1H-indole-4-méthanol]",–,–,–,–,> 400 mg/kg,–,–,–,–,−32%,−14%,−15%,−13%,–,–
Oxalate neutre de 1'a[[(1-méthyléthyl)amino]méthyl]-1H-indole-4-méthanol [Exemple 2],–,–,–,–,200 mg/kg,−36%,−28%,−30%,−27%,−41%,−38%,−29%,−20%,–,Variation % de la pression arterielle 1 heure après l'administration [3]: −22%; Variation % de la pression arterielle 4 heures après l'administration [3]: −21%
"NCC(O)c1cccc2[nH]ccc12 (stereo not drawn) [Exemple 1, Fumaratede 1α-(aminométhyl)-1H-indole-4-méthanol]",–,–,–,–,–,–,–,–,–,–,–,–,–,>1000 mg/kg,–
"CNCC(O)c1cccc2[nH]ccc12 (centres unmarked) [Exemple 3, a-(méthylamino)méthyl-1 H-indole-4-méthanol]",–,–,–,–,–,–,–,−5%,–,–,–,–,–,600 mg/kg,"Variation % de la pression arterielle 1 minute après l'administration [1, 6]: +19%; Variation % de la pression arterielle 5 minutes après l'administration [1, 6]: −4%; Variation % de la pression arterielle 30 minutes après l'administration [1, 6]: −9%"
"OC(CNCc1ccccc1)c1cccc2[nH]ccc12 (centres unmarked) [Exemple 8, Oxalate acidede 1'a[[(phénylméthyl)amino]méthyl]-1 H-indole-4-méthanol]",−38%,−21%,−21%,−15%,–,–,–,–,–,−9%,−8%,−6%,−10%,100 mg/kg,–
"CNCC(O)c1cccc2c1CCN2 (centres unmarked) [Exemple 6, a-(méthylamino)métyl-2,3-dihydro-1 H-indole-4-méthanol]",–,–,–,–,–,–,–,–,–,–,–,–,–,> 400 mg/kg,–
"OC(CNCCc1ccccc1)c1cccc2[nH]ccc12 (centres unmarked) [Exemple 9, Oxalate acidede 1'a-[[(2-phényléthyl)amino]méthyl]-1 H-indole-4-méthanol]",−48%,−44%,−37%,−33%,80 mg/kg,–,–,–,–,−13%,−11%,−4%,−3%,–,–
